Experiments:
[1] = Clearance / accumulation in the body; conditions: in vivo
Source text: A 4 days on and 3 days off cycle in a week is one such cycle, the cycle may be modified to accommodate patients having pharmacokinetics allowing for more days on or requiring more days off such as 5 days on and 2 days off or 3 days on and 4 days off or 6 days on and 1 day off, or 6 days on and 1 day off. The 4 days on and 3 days off regimen or a modified regimen may be repeated for a 21-day cycle or a longer cycle. For example, Compound (1) or its pharmaceutically acceptable salt may be administered consecutively on each of the following four days during a 21-day period: days 1 through 4, days 8 through 11, and days 15 through 18, with a prescribed rest on days 5 through 7, days 12 through 14, and days 19 through 21. Such intermittent administration is applicable also to the combination therapies where Compound (1) or its pharmaceutical acceptable salt is administered in combination with one or more agents.

[2] = test system: tumor in patients with advanced cancer; test: Phase 2 clinical study, tumor shrinkage / response; assay type: in vivo, human
Protocol: (§1) The following examples report the results of phase 2 clinical studies where Compound 1 in tablet form was administered orally to patients with different tumor type. In this trial Compound 1 was administered once/day at a dosage of 16 mg/day or 20 mg/day for a 21 day cycle which was repeated as desired. The compound was also administered intermittently on a schedule of 4 days and 3 days off for 21 days per cycle. The cycle was repeated as desired identifies the adverse events in the trials.
The reported shrinkages are over 50% for patient 100-006, about 10% for patients 100-009 and about 5% for patient 200-007.

[3] = test system: endometrial cancer harboring PIK3CA mutation; ovarian clear cell carcinoma; test: Objective response in patients given oral Compound (1); assay type: in vivo, human
[4] = Phase 2 clinical study, treatment-related adverse events; assay type: in vivo, human
Protocol: as §1
A total of 8 patients (50%) experienced at least 1 treatment-related event of Grade ≥3; the most frequently reported event of this kind was rash and maculopapular rash (25.0%).

[5] = Storage stability of crystal form; assay type: physicochemical
Protocol: Compound (1) can exist in a crystal form having an x-ray diffraction pattern of least 5 diffraction angles)(20±0.2° selected from 7.7°, 9.5°, 10.3°, 12.3°, 14.5°, 15.6°, 16.3°, 17.8°, 18.3°, 19.3°, 20.9°, 22.8°, 24.2°, 25.7°, 26.8°, 27.7°, 29.0°, and 30.1° in a powder x-ray diffraction spectrum. Preferably the crystal form has peaks at diffraction angles)(20±0.2° 7.7°, 9.5°, 10.3°, 12.3°, 14.5°, 15.6°, 16.3°, 17.8°, 18.3°, 20.9°, 22.8°, 24.2°, 25.7°, 26.8°, 27.7°, 29.0°, and 30.1°. […] The method preparing this crystal form is described in U.S. Pat. No. 10,323,044 the content of which is incorporated herein in its entirety.

For `C[C@]1(O)C[C@@](N)(c2ccc(-c3nc4n(c3-c3ccccc3)COc3ccncc3-4)cc2)C1` [Compound (1)], the “clearance from the body” value [1] was “not cleared from the body quickly but can accumulate in the body”, the “patients with tumor shrinkage” value ([2]; of the 15 patients treated, PIDs 100-006, 200-005, 100-009, 200-007) was 4 patients and the “response in the target lesion (Lymph Node)” value ([2]; patient 100-006) was “complete response”. For the same compound, the tumor shrinkage ([2]; patient 100-006) was “over 50%”, the tumor shrinkage ([2]; patient 100-009) was “about 10%” and the tumor shrinkage ([2]; patient 200-007) was “about 5%”. The “patients with objective response” value ([3]; endometrial cancer harboring PIK3CA mutation) was “one”, the “patients with objective response” value ([3]; ovarian clear cell carcinoma) was 3 patients and the “treatment-related Grade ≥3 AE: hyperglycemia” value ([4]; Grade ≥3) was 12.5%. For the same compound, the “treatment-related Grade ≥3 AE: mucositis oral” value ([4]; Grade ≥3) was 12.5%, the “treatment-related Grade ≥3 AE: neutrophil count decreased” value ([4]; Grade ≥3) was 12.5% and the “treatment-related Grade ≥3 AE: rash and maculopapular rash” value ([4]; Grade ≥3) was 25.0%. The “treatment-related AE: decreased appetite” value ([4]; any grade) was 18.8%, the “treatment-related AE: diarrhea” value ([4]; any grade) was 18.8% and the “treatment-related AE: fatigue” value ([4]; any grade) was 37.5%. For the same compound, the “treatment-related AE: hyperglycemia” value ([4]; any grade) was 31.3%, the “treatment-related AE: mucositis oral” value ([4]; any grade) was 18.8% and the “treatment-related AE: nausea” value ([4]; any grade) was 12.5%. The “treatment-related AE: pruritus” value ([4]; any grade) was 25.0%, the “treatment-related AE: rash and maculopapular rash, patients” value ([4]; any grade, up to 20 mg QD / 24 mg intermittent) was 62.5% and the safety profile ([4]; up to 20 mg QD and 24 mg intermittent dosing, patients with advanced cancer) was “generally acceptable and clinically manageable”. For the same compound, the shelf life indicated ([5]; room temperature, inferred from 40° C. six-month storage) was 24 month and the stability on storage ([5]; stored at 40° C. for six months) was “good stability”.

Reference: US20240122937A1, “TREATING CANCER IN PATIENT WITH PTEN INACTIVATING MUTATION” (TAIHO PHARMACEUTICAL CO., LTD., priority 2021, published 2024)
